Experimental data: patent publication US20230091047A1 (priority 2019, published 2023)
Like-named read-outs stand apart in the source and are kept apart here.

Legend:
[1] = system: HBV (HepG2.117 cell line, inducibly HBV producing); test: Anti-HBV activity: intracellular HBV DNA by real-time PCR in HepG2.117 cells after 3 days of treatment; format: cell-based, hepatitis B virus
How it was run: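 Read-out is intracellular HBV DNA, measured by real-time PCR using HBV-specific primers and probe. Cells were stable, inducible HBV-producing HepG2.117 (Tet-off). Serially diluted compound was applied for 3 days after replication was induced.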

in vitro = format: cell-based; settings: human, HepG2 or HepG2.117 cells, ATPlite, mean value
How it was run: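 Luminescent ATP quantitation served as the viability endpoint following a 3- or 4-day incubation with test compounds.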

[2] = Hepatitis B virus, HepG2.117, 72 h, HepG2.117 cells, intracellular HBV DNA by real-time PCR, 3 days of treatment, mean value; read-out: EC50 (μM, mean value)
[3] = 3-days incubation (not marked with *)
[4] = Hepatitis B virus, HepG2.117, 72 h, HepG2.117 cells, 3 days of treatment, intracellular HBV DNA by real-time PCR; mean value; read-out: EC50 (μM, mean value)
[5] = 3-days incubation (unmarked values)

| Compound | EC50 [1, 2] | CC50 at 3 days (in vitro; [3]) | EC50 [1, 4] | CC50 at 3 days (in vitro; [5]) | also measured |
| --- | --- | --- | --- | --- | --- |
| CNC(=O)c1ccc(-n2c(N[C@@H](C)C(C)(C)C)nc3c(c2=O)C[C@@H](C)N(C(=O)c2ccc(Cl)c(Cl)c2)C3)cc1 (single isomer, unassigned) [Compound C459b] | 0.63 µM | 32.5 µM | – | – | – |
| C[C@@H]1Cc2c(nc(NC(C)(C)c3cnn(C)c3)n(-c3ccc(S(C)(=O)=O)cc3)c2=O)CN1C(=O)c1ccc(Cl)c(Cl)c1 [Compound C207, (6R)-7-(3,4-dichlorobenzoyl)-3-[4-(methanesulfonyl)phenyl]-6-methyl-2-{[2-(1-methyl-1H-pyrazol-4-yl)propan-2-yl]amino}-5,6,7,8-tetrahydropyrido[3,4-d]pyrimidin-4(3H)-one] | – | – | 0.59 µM | > 50 µM | – |
| CC(C)Nc1nc2c(c(=O)n1-c1ccc(S(C)(=O)=O)cc1)CC(C)N(C(=O)c1ccc(Cl)c(Cl)c1)C2 (stereo not drawn) [Compound C100, 7-(3,4-dichlorobenzoyl)-3-[4-(methanesulfonyl)phenyl]-6-methyl-2-[(propan-2-yl)amino]-5,6,7,8-tetrahydropyrido[3,4-d]pyrimidin-4(3H)-one] | – | – | 0.51 µM | > 25 µM | – |
| Cc1noc(C)c1-c1ccc(-n2c(NC(C)C)nc3c(c2=O)C[C@@H](C)N(C(=O)c2ccc(Cl)c(Cl)c2)C3)cn1 [Compound C264, (6R)-7-(3,4-dichlorobenzoyl)-3-[6-(3,5-dimethyl-1,2-oxazol-4-yl)pyridin-3-yl]-6-methyl-2-[(propan-2-yl)amino]-5,6,7,8-tetrahydropyrido[3,4-d]pyrimidin-4(3H)-one] | – | – | 0.26 µM | > 50 µM | – |
| COc1ccc(CNc2nc3c(c(=O)n2-c2ccccc2OC)C[C@@H](C)N(C(=O)c2ccc(Cl)c(Cl)c2)C3)cc1 (single isomer, unassigned) [Compound C36Aa] | – | – | 0.31 µM | > 50 µM | – |
| C#C[C@H](C)Nc1nc2c(c(=O)n1-c1ccc(C(=O)NC)cc1)C[C@@H](C)N(C(=O)c1ccc(Cl)c(Cl)c1)C2 [Compound C302, 4-[(6R)-2-{[(2S)-but-3-yn-2-yl]amino}-7-(3,4-dichlorobenzoyl)-6-methyl-4-oxo-5,6,7,8-tetrahydropyrido[3,4-d]pyrimidin-3(4H)-yl]-N-methylbenzamide] | – | – | 0.06 µM | > 50 µM | – |
| CNC(=O)c1ccc(-n2c(N[C@H](C)c3cccnc3)nc3c(c2=O)C[C@@H](C)N(C(=O)c2ccc(Cl)c(Cl)c2)C3)cc1 (single isomer, unassigned) [Compound C377a] | 0.82 µM | > 50 µM | – | – | – |
| CNC(=O)c1cc(-n2c(N[C@@H](C)c3ccc(OC(F)(F)F)cc3)nc3c(c2=O)C[C@@H](C)N(C(=O)c2ccc(Cl)c(Cl)c2)C3)[nH]n1 [Compound C607] | 0.14 µM | 11.4 µM | – | – | – |
| CC(C)Nc1nc2c(c(=O)n1-c1ccc(-c3cnc[nH]3)cc1)C[C@@H](C)N(C(=O)c1ccc(Cl)c(Cl)c1)C2 [Compound C213, (6R)-7-(3,4-dichlorobenzoyl)-3-[4-(1H-imidazol-5-yl)phenyl]-6-methyl-2-[(propan-2-yl)amino]-5,6,7,8-tetrahydropyrido[3,4-d]pyrimidin-4(3H)-one] | – | – | 0.36 µM | > 50 µM | – |
| CNC(=O)c1ccc(-n2c(N[C@@H](C)c3ccc4[nH]cnc4c3)nc3c(c2=O)C[C@@H](C)N(C(=O)c2ccc(Cl)c(Cl)c2)C3)cc1 (single isomer, unassigned) [Compound C647b] | > 2.5 µM | > 50 µM | – | – | – |
| CC(C)Nc1nc2c(c(=O)n1-c1ccc(-c3nccn3C)cc1)CCN(C(=O)c1ccc(Cl)c(Cl)c1)C2 [Compound C174, 7-(3,4-dichlorobenzoyl)-3-[4-(1-methyl-1H-imidazol-2-yl)phenyl]-2-[(propan-2-yl)amino]-5,6,7,8-tetrahydropyrido[3,4-d]pyrimidin-4(3H)-one] | – | – | 0.42 µM | 6.8 µM | – |
| CNC(=O)c1ccc(-n2c(NC(C)C)nc3c(c2=O)C[C@@H](C)N(C(=O)c2ccc(OC(F)(F)F)c(Cl)c2)C3)cc1 [Compound C525] | 0.15 µM | > 50 µM | – | – | – |
| CNC(=O)c1ccc(-n2c(NCC(CO)C3CC3)nc3c(c2=O)C[C@@H](C)N(C(=O)c2ccc(Cl)c(Cl)c2)C3)cc1 (stereo partly drawn) [Compound C482] | 8.34 µM | > 50 µM | – | – | – |
| CNC(=O)c1ccc(-n2c(NC(C)(C)c3ccccc3)nc3c(c2=O)C[C@@H](C)N(C(=O)c2ccc(Cl)c(Cl)c2)C3)cc1 [Compound C407] | 0.15 µM | 18 µM | – | – | – |
| CNC(=O)c1ccc(-n2c(NC(C)C)nc3c(c2=O)C[C@@H](C)N(C(=O)c2[nH]nc(C(F)(F)F)c2C)C3)cc1 [Compound C493] | 15.2 µM | > 50 µM | – | – | – |
| CNC(=O)c1ccc(-n2c(N[C@@H]3CCCC3(C)C)nc3c(c2=O)C[C@@H](C)N(C(=O)c2ccc(Cl)c(Cl)c2)C3)cc1 (single isomer, unassigned) [Compound C318, 4-[(6R)-7-(3,4-dichlorobenzoyl)-2-{[(1*R)-2,2-dimethylcyclopentyl]amino}-6-methyl-4-oxo-5,6,7,8-tetrahydropyrido[3,4-d]pyrimidin-3(4H)-yl]-N-methylbenzamide] | – | – | 0.68 µM | 23.2 µM | – |
| CNC(=O)c1ccc(-n2c(NC(C)C)nc3c(c2=O)C[C@@H](C)N(C(=O)c2ccc(Cl)c(Cl)c2)C3)c(C(C)C)c1 [Compound C420] | – | 25 µM | – | – | EC50 ([1]; HepG2.117 cells, intracellular HBV DNA by real-time PCR, 3 days of treatment, mean value; read-out: EC50 (μM, mean value)): 0.61 µM |
| CNC(=O)c1ccc(-n2c(NC(C)C)nc3c(c2=O)C[C@@H](C)N(C(=O)c2ccc(Br)cc2F)C3)cc1 [Compound C511] | 2.41 µM | > 50 µM | – | – | – |
| CNC(=O)c1ccc(-n2c(N[C@H](C)c3ccc4[nH]ccc4c3)nc3c(c2=O)C[C@@H](C)N(C(=O)c2ccc(Cl)c(Cl)c2)C3)cc1 (single isomer, unassigned) [Compound C449a] | 0.04 µM | > 50 µM | – | – | – |
| CNC(=O)c1ccc(-n2c(NC(C)C)nc3c(c2=O)C[C@@H](C)N(C(=O)c2ccc(Cl)c(C(F)(F)F)c2)C3)c(Cl)c1 (single isomer, unassigned) [Compound C639a] | 0.02 µM | > 50 µM | – | – | – |
| CNc1nc2c(c(=O)n1-c1ccccc1OC)CCN(C(=O)c1ccc(Cl)c(Cl)c1)C2 [Compound C11, 7-(3,4-dichlorobenzoyl)-3-(2-methoxyphenyl)-2-(methylamino)-5,6,7,8-tetrahydropyrido[3,4-d]pyrimidin-4(3H)-one] | – | – | 6.41 µM | – | CC50 at 4 days (in vitro; 4-days incubation (values marked with *)): > 50 µM |
| CNC(=O)c1ccc(-n2c(NCc3cn(C)nn3)nc3c(c2=O)C[C@@H](C)N(C(=O)c2ccc(Cl)c(Cl)c2)C3)cc1 [Compound C469] | > 25 µM | > 50 µM | – | – | – |
| CC(C)Nc1nc2c(c(=O)n1-c1ccc(-c3nccn3C)cc1Cl)C[C@@H](C)N(C(=O)c1ccc(Cl)c(Cl)c1)C2 [Compound C313, (6R)-3-[2-chloro-4-(1-methyl-1H-imidazol-2-yl)phenyl]-7-(3,4-dichlorobenzoyl)-6-methyl-2-[(propan-2-yl)amino]-5,6,7,8-tetrahydropyrido[3,4-d]pyrimidin-4(3H)-one] | – | – | 0.12 µM | 24.4 µM | – |
| COc1ccc(CNc2nc3c(c(=O)n2-c2ccc(N4CCOCC4C(=O)O)cc2)CCN(C(=O)c2ccc(Cl)c(Cl)c2)C3)cc1 (stereo not drawn) [Compound C159, 4-{4-[7-(3,4-dichlorobenzoyl)-2-{[(4-methoxyphenyl)methyl]amino}-4-oxo-5,6,7,8-tetrahydropyrido[3,4-d]pyrimidin-3(4H)-yl]phenyl}morpholine-3-carboxylic acid] | – | – | 23.1 µM | > 50 µM | – |
